Data on two molecules can be found in patent US9927437B2, “Treating neurodegenerative disease” (THE BRIGHAM AND WOMEN'S HOSPITAL, INC., priority 2013, dated 2018).

The structures appear in SMILES notation. Entries after “also recorded” stand apart in the source; their conditions may differ.

The test system of data set [1] is T cells. The data set can be described thus: T-cell response in EAE mice (recall proliferation, cytokines, polarization). The data set is classed as in vivo, mouse. The conditions noted are these: for T-cell response: NOD EAE, daily Miglustat. Here is the method: FIGS. 9a-d. Depletion of reactive astrocytes reduces the recruitment of peripheral leukocytes to the CNS. (a-d). EAE was induced in WT or GFAP^TK F1 hybrid mice and Ganciclovir (GCV) or vehicle control (PBS) was administered as in FIG. 1b. Data are representative of three independent experiments with n≥7 mice/group (means and s.e.m.). (a) Effect of GCV administration on reactive astrocytes detected by GFAP staining (b) Recruitment of monocytes (red gate) and lymphocytes (green gate) to the CNS assessed by FACS. Data are representative of three independent experiments. Statistical analysis by Student's t-test. (c, d) Effect of the depletion of reactive astrocytes during the chronic phase of EAE on the recall proliferative response to MOG(35-55) or anti-CD3 (c) and the expression of IFN-γ, IL-17A, Foxp3 and IL-10 in splenic CD4+ T cells (d). *P<0.05, and (n.s) not significant.
FIGS. 12a-i. […] (a) Naïve C57BL/6 (Left panel) and NOD (right panel) mice were treated with LacCer (10 μg per mouse) or vehicle as indicated by red arrows, and EAE clinical scores was recorded. At experimental end point (day 25), astrocytes were isolated and their transcriptional profile was determined by nCounter Nanostring analysis. (b-e) EAE was induced in C57BL/6 (b, c) or NOD mice (d, e) and LacCer or vehicle were administrated as in FIGS. 1g and 1h, respectively. Splenic T-cell recall response to MOG(35-55) (20 μg/ml); proliferation (b, d) and secretion of IL-17A, IFN-γ and IL-10 cytokines (c, e). Data are representative of two independent experiments with ≥8 mice/group (mean and s.e.m.). (f-i) EAE NOD mice were treated with PDMP or vehicle during the chronic phase as in FIG. 1K. Data are representative of three independent experiments with n≥8 mice/group (mean and s.e.m.). (f) qPCR analysis of the expression of tbx21, ifng, rorc, il17A, csf2, il10, foxp3, and tgfb1 mRNA of CD3^+CD4^+ T-cells isolated from the CNS; expression is presented relative to gapdh. (g, h) Recall response to MOG(35-55) (20 μg/ml); proliferation (g) and secretion of IL-17A, IFN-γ and IL-10 cytokines (h). (i) Expression of IFN-γ, IL-17A, Foxp3 and IL-10 by splenic CD3^+CD4^+ T cells (mean and s.e.m.).
Splenocytes and lymph node cells were cultured in X-VIVO medium and were plated for 72 h at a density of 5×10^5 cells per well in the presence of MOG35-55 peptide. During the final 16 h, cells were pulsed with […] [3H]thymidine (PerkinElmer), followed by collection on glass fiber filters and analysis of incorporated [3H]thymidine in a-counter (1450 MicroBeta TriLux; PerkinElmer). Supernatants were collect after 48 h of culture for cytokine measurement by enzyme-linked immunosorbent assay^14. For intracellular cytokine staining, cells were stimulated for 6 h with PMA (phorbol 12-myristate 13-acetate; 50 ng/ml; Sigma), ionomycin (1 μg/ml; Sigma) and monensin (GolgiStop; […]; BD Biosciences). After staining of surface markers, cells were fixed and made permeable according to the manufacturer's instructions BD Cytofix/Cytoperm™ Kit (BD Biosciences), or Foxp3 Fixation/Permeabilization (Ebiosceince).

In data set [2] the test system is reactive astrocytes. The data set can be described thus: EAE in F1 NOD C57BL/6 GFAP-HSV-TK hybrid mice, depletion of reactive astrocytes. The data set is classed as in vivo, mouse.
Data set [3] deals with EAE NOD mice. The data set is described as follows: EAE in NOD mice, progressive phase (clinical score, histopathology, body weight). The data set is classed as in vivo. The conditions noted are these: NOD EAE; for body weight: daily Miglustat.
The test system of data set [4] is inflammatory monocytes. The data set is described as follows: Recruitment of inflammatory monocytes to the CNS of EAE NOD mice (flow cytometry). As to conditions: daily Miglustat from onset of progressive phase. The data set is classed as in vivo, mouse.
Data set [5] has as its system primary astrocytes. The data set is described as follows: Activation of cultured primary astrocytes, mRNA expression. The data set is classed as cell-based, mouse. As to conditions: primary mouse astrocytes activated with LPS/IFNγ; Miglustat. Here is the method: FIGS. 3a-m. LacCer produced by B4GALT6 acts in an autocrine manner to boost astrocyte activation. Cultured astrocytes were pre-treated for 1 h with PDMP (25 μM), LacCer (10 μM), both (LacCer+PDMP), or vehicle (vehicle), followed by activation with lipopolysaccharide (100 ng/ml) and Interferon-γ (100 Units/ml) (LPS/IFNγ) or left un-treated (control). (a) Heatmap depicting mRNA expression, as detected by Nanostring nCounter analysis, in astrocytes stimulated with LPS/IFNγ. Representative data of three independent experiments. (b) Histogram presentation of the normalized gene expression presented in (a), statistical analysis by one-way ANOVA followed by Tukey post-hoc analysis. (c-i) The expression of B4galt5 (shB4galt5), B4galt6 (shB4galt6) or non-targeting shRNA (ShControl) in C8-D30 astrocytes was knocked-down using verified shRNA (n≥4). (c) qRT analysis of B4galt5 and B4galt6 mRNA expression. (d-f) astrocytes were activated as in (a) and mRNA expression for (d) H2-Aa, (e) Ccl5 and (f) Cxcl10 was determined; expression is presented relative to house keeping gene (Gapdh) (n≥4). (g) Schematic map of the astrocyte-specific shRNA lentiviral vector. […] NOD mice were injected i.c.v. with 1×10^7 IU of shControl, shB4galt5 or shB4galt6 lentivirus, at day 35 after EAE induction (progressive phase). n=10 mice per group (h, i) 10 days after i.c.v. injection experiment was terminated and (h) b4galt5 and b4galt6 expression levels were determined by qPCR in astrocytes isolated from naïve or EAE NOD mice; expression normalized to gapdh and presented relative to that of cells from naïve mice. Representative data of two independent experiments, Statistical analysis by one-way ANOVA, followed by Tukey post-hoc analysis. (i) LacCer levels were quantified of in the CNS of naïve or EAE NOD mice treated as shown in (j). Statistical analysis by one-way ANOVA, followed by Tukey post-hoc analysis. (j) EAE clinical scores. Representative data of two independent experiments. Statistical analysis as in (FIG. 1a). (k) Cultured primary astrocytes were pre-treated for 1 h with PDMP (25 μM), LacCer (10 μM), both (LacCer+PDMP), or vehicle control (vehicle), followed by activation with LPS/IFNγ for 45 min, or left un-treated (control, Con). IRF-1 and Lamin B expression in the nuclear fraction analyzed by western blot and the degree of IRF-1 translocation to the nucleus was assessed by the ratio between the expression of IRF-1 and Lamin-B in the nuclear fractions following densitometric quantification on four independent experiments (right panel). Statistical analysis by one-way ANOVA, followed by Tukey post-hoc analysis. (l) ChIP analysis of the interaction of NF-κB, and IRF-1 with the) nos2 promoter in primary cultured astrocytes. Experimental design and data analysis as in (FIG. 4c). Data from two independent experiments (m) qPCR analysis of the expression of nos2, csf2, ccl2, ccl5, il6, and tlr2 in astrocyte cultures established from WT or IRF-1 deficient (IRF-1 KO) mice, pre-treated with LacCer or vehicle, and activated with LPS/IFNγ. […]
FIGS. 14a-g. […] (a) Cultured astrocytes were pre-treated for 1 h with PDMP (25 μM), LacCer (10 μM), both (LacCer+PDMP), or vehicle control (vehicle), followed by activation with LPS/IFNγ for 6 h, or left un-treated (control, Con). mRNA expression was analyzed 6 h following activation. qPCR analysis of the expression of cc/5, csf2, nos2, il6, H2-Aa, and tlr2 presented relative to gapdh. […]

On to `Nc1nc(O)c2ncn(COC(CO)CO)c2n1` [GCV, Ganciclovir], for which the “peripheral T-cell response” value in data set [1] (GFAP-TK F1 mice, GCV during progressive phase) was “did not affect”. For the same molecule, the “EAE scores, astrocyte depletion during the progressive phase” value in data set [2] (25 mg/kg daily s.c. days 30-50) is reported as “significant amelioration of EAE”. The “EAE scores, astrocyte depletion during the acute phase” value in data set [2] (25 mg/kg daily s.c. from 7 days before induction until day 15) is “significant worsening of EAE”. The “leukocyte infiltration in the CNS” value in data set [2] (treatment during progressive phase, FACS) was “decreased leukocyte infiltration”.

Regarding `CCCCN1C[C@H](O)[C@@H](O)[C@H](O)[C@H]1CO` [Miglustat, N-butyl-deoxynojirimycin], the body weight result was “does not affect body weight” in data set [3] and “did not affect” in data set [3] (listed as miglustat). Moreover, in data set [3] (daily from onset of progressive phase, oral 1800 or 600 mg/kg, or nasal 900 mg/kg twice a day), the “clinical course of EAE disease progression” value is “suppressed the clinical course of disease progression; also recorded: halts chronic EAE progression”. Further, the T-cell response entry in data set [1] was “does not affect T-cell polarization”; in data set [1] (listed as miglustat) it was “did not affect”. For the same molecule, in data set [4], the “recruitment of inflammatory monocytes to the CNS” value is “reduced the recruitment; also recorded: reduces monocytes recruitment”. Also, the astrocyte activation entry in data set [5] is “inhibits astrocyte activation”.
